Results: publication PMC8068801, “Novel Benzenesulfonate Scaffolds with a High Anticancer Activity and G2/M Cell Cycle Arrest” (Cancers, 2021)

Legend:
K562 cells = assay: MTS cytotoxicity assay, K562; assay type: cell-based, human
From the text: (§1) M. Rusin from the Maria Sklodowska-Curie Memorial Cancer Centre and Institute of Oncology in Gliwice, Poland. […] G. Kramer-Marek from the Institute of Cancer Research in London, United Kingdom. The human suspension chronic myelogenous leukemia cell line K562 and pancreas ductal adenocarcinoma cell line PANC-1 were purchased from Sigma-Aldrich (St. Louis, MO, USA), while the normal human dermal fibroblasts cell line NHDF were purchased from PromoCell. […] Each medium contained a combination of two antibiotics: penicillin and streptomycin (1% v/v; Gibco). All of these cell lines were grown under standard conditions at 37 °C with a 5% CO2 humidified atmosphere. Moreover, all of the cell lines were routinely tested for mycoplasma using the PCR technique with specific Mycoplasma primers to confirm that there was no contamination.
(§2) The assay was performed following a 72 h incubation with the various concentrations of the tested compounds. Then, 100 µL DMEM without phenol red with 20 µL of the CellTiter 96®AQueous One Solution-MTS (Promega, Promega, WI, USA) was added to each well and incubated for 1 h or 3 h (PANC-1) at 37 °C. The optical densities of the samples were measured at 490 nm using a multi-plate reader (Synergy 4, BioTek, Winooski, VT, USA). […] Each individual compound was tested in triplicate in a single experiment with each experiment being performed three or four times.

HCT 116 p53^+/+ cells = assay: MTS cytotoxicity assay, HCT 116 p53+/+; assay type: cell-based, human
From the text: as §1, §2

HCT 116 p53^−/− cells = assay: MTS cytotoxicity assay, HCT 116 p53-/-; assay type: cell-based, human
From the text: as §1, §2

MCF-7 cells = assay: MTS cytotoxicity assay, MCF-7; assay type: cell-based, human
From the text: as §1, §2

A549 cells = assay: MTS cytotoxicity assay, A549; assay type: cell-based, human
From the text: as §1, §2

PANC-1 cells = assay: MTS cytotoxicity assay, PANC-1; assay type: cell-based, human
From the text: as §1, §2

NHDF cells = assay: MTS cytotoxicity assay, normal fibroblasts NHDF; assay type: cell-based; conditions: NHDF normal human fibroblasts, 72 h incubation
From the text: as §1, §2

ABL1 = target: T1, ABL1 (Homo sapiens, UniProt P00519); assay: Tyrosine kinase assay (Kinase Selectivity TK-2, ADP-Glo); assay type: biochemical; conditions: read-out: Inhibitory Effect of the Tyrosine Kinase Activity, ABL1
T1 construct: purchased Promega
T1 sequence (P00519 whole entry): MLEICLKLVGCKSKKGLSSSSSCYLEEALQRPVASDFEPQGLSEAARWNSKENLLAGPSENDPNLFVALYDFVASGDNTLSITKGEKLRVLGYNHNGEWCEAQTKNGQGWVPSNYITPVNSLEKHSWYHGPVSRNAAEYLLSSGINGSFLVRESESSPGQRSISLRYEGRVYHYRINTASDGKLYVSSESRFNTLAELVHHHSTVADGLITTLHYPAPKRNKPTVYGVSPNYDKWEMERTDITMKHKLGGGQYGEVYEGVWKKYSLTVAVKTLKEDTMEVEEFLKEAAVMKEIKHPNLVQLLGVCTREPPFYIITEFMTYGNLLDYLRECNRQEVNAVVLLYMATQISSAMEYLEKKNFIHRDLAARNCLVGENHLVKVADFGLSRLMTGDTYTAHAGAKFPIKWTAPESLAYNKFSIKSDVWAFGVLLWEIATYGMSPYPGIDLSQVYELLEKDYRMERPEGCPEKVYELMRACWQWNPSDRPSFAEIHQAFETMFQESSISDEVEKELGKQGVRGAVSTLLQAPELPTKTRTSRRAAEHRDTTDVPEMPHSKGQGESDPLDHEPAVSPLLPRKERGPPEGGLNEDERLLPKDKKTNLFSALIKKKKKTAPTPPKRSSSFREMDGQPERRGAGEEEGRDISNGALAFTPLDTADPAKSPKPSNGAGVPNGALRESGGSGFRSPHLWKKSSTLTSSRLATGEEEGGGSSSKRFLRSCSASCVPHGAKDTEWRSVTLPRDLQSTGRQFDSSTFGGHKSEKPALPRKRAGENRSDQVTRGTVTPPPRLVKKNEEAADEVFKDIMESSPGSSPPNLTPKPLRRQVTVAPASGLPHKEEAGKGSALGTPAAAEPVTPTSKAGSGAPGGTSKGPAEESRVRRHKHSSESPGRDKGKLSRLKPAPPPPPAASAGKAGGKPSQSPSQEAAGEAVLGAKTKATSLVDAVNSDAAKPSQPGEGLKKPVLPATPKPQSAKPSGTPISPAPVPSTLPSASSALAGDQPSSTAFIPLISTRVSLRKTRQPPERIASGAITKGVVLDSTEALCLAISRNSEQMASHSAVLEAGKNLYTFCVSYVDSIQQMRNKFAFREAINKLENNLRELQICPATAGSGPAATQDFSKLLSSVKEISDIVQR
Procedure: (§3) Assays using the Kinase Selectivity TK-2 profiling systems and ADP-Glo Kinase Assay (both from Promega) were performed to determine the inhibition of the non-receptor tyrosine kinases. The protocol was previously designed and described by our group in reports. The experiments were performed at least four times. The data are expressed as the percentage of the inhibition activity of tyrosine kinase after treatment with the tested derivatives.

BRK = target: T2, BRK (Homo sapiens, UniProt Q13882); assay: as above; assay type: biochemical; conditions: read-out: Inhibitory Effect of the Tyrosine Kinase Activity, BRK
T2 construct: purchased Promega
T2 sequence (Q13882 whole entry): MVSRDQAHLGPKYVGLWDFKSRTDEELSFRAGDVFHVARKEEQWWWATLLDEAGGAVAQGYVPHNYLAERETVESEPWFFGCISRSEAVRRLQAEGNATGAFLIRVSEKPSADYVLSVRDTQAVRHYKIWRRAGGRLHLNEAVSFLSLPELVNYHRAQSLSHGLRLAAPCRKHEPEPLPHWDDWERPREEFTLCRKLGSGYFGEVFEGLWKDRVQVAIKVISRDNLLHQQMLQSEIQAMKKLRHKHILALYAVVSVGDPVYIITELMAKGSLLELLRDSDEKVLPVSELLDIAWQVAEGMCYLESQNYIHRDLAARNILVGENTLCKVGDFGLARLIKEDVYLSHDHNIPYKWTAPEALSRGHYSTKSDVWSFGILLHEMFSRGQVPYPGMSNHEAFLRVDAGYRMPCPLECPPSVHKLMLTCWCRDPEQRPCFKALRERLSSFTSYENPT
Procedure: as §3

CSK = target: T3, CSK (Homo sapiens, UniProt P41240); assay: as above; assay type: biochemical; conditions: read-out: Inhibitory Effect of the Tyrosine Kinase Activity, CSK
T3 construct: purchased Promega
T3 sequence (P41240 whole entry): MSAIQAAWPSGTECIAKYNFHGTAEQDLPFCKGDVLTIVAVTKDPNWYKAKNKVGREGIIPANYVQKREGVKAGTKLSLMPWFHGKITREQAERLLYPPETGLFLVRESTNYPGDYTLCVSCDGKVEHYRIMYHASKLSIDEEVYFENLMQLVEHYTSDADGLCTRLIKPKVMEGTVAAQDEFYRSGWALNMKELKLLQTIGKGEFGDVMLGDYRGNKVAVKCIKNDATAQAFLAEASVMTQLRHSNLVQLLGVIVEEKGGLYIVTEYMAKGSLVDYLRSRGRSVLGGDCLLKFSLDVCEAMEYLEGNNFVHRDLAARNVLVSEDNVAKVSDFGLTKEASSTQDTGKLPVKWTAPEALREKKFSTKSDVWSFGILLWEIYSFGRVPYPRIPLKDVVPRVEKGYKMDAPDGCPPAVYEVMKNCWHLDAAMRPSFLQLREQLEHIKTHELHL
Procedure: as §3

Fyn A = target: T4, Fyn A (Homo sapiens, UniProt P06241); assay: as above; assay type: biochemical; conditions: read-out: Inhibitory Effect of the Tyrosine Kinase Activity, Fyn A
T4 construct: purchased Promega
T4 sequence (P06241 whole entry): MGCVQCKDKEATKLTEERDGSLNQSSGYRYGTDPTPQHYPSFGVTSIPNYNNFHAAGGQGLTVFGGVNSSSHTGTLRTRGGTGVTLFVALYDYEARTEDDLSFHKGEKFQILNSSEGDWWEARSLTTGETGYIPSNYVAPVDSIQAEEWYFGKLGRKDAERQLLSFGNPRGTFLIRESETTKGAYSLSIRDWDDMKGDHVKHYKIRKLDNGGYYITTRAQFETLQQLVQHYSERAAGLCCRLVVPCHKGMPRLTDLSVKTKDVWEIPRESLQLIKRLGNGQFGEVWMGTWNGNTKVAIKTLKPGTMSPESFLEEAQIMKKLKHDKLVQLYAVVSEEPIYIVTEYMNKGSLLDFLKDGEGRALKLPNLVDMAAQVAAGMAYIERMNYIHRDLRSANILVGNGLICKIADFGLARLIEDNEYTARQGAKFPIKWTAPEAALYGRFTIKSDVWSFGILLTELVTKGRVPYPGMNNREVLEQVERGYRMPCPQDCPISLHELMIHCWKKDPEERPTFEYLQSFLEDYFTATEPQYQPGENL
Procedure: as §3

Lyn B = target: T5, Lyn B (Homo sapiens, UniProt P07948); assay: as above; assay type: biochemical; conditions: read-out: Inhibitory Effect of the Tyrosine Kinase Activity, Lyn B
T5 construct: purchased Promega
T5 sequence (P07948 1-491 isoform P07948-2): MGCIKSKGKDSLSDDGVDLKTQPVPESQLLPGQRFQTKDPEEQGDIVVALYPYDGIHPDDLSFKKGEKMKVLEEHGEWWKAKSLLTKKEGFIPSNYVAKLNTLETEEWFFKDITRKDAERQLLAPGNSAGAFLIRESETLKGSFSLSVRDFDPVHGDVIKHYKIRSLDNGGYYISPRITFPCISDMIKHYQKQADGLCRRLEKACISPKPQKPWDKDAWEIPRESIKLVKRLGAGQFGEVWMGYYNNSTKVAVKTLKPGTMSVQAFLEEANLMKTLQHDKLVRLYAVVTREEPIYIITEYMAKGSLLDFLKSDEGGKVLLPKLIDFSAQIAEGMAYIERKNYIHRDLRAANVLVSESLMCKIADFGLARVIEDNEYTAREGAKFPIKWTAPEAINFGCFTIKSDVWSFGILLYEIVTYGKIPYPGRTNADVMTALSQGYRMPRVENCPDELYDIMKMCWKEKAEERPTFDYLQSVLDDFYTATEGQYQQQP
Procedure: as §3

U-251 cells = assay: Immunoblotting with densitometry, U-251; assay type: cell-based, human
Procedure: The K562 and U-251 cells were seeded in 3 cm Petri dishes (Nunc) at a density of 500,000 cells per well and incubated overnight. […] Next, the cell pellets were resuspended in an RIPA buffer containing a Halt Protease Inhibitor Cocktail and a Halt Phosphatase Inhibitor Cocktail along with 0.5 M EDTA (all from Thermo Scientific, Waltham, MA, USA) and lysed on ice for 20 min. Then, the obtained lysates were sonicated and centrifuged at 10,000 rpm for 10 min at 4 °C. The supernatants were collected for further analysis. The protein concentration was measured using a Micro BCA™ Protein Assay Kit (Thermo Scientific) according to the manufacturer’s instructions. Equal amounts of the proteins (16 μg) were electrophoresed on SDS-Page gels and transferred onto nitrocellulose membranes. The membranes were blocked in 5% non-fat milk prepared in TPBS (PBS containing 0.1% Tween-20) for 1 h. After blocking, the membranes were incubated with the specific primary antibodies (all from Cell Signaling) at a 1:1000 dilution—cyclin E, cdc2, PARP, AIF, BID, p53, p21^Waf1/Cip1, HIF-1α, cathepsin B and caspase-9—and at a 1:2000 dilution for the reference proteins—vinculin, β-actin and GAPDH—overnight at 4 °C. The next day, the membranes were washed in TPBS and incubated with horseradish peroxidase (HRP)-conjugated secondary antibodies for 1 h at room temperature. Lastly, the membranes were washed in TPBS and incubated with a SuperSignal™ West Pico Chemiluminescent Substrate (Thermo Scientific). The chemiluminescence signals were captured using a ChemiDoc™ XRS + System (Biorad). The experiments were performed at least four to five times. The densitometric analysis was conducted using ImageJ software (Wayne Rasband, National Institutes of Health, Bethesda, MD, USA).
The band intensity of tested proteins (p53, cyclin E1, cdc2, p21, HIF-1α, cathepsin b, PARP, caspase-9, BID, AIF) were analyzed by densitometry readings/intensity ratio, using ImageJ software (NIH) and were normalized to the corresponding reference proteins (GAPDH, vinculin or β-actin) value.
The densitometric readings/intensity ratio data from four/five independent experiments (compared to control): […]
p53/ Refer- p21/ Refer- cdc2/ Refer- Cyclin E1/ HIF-1α/ Cathepsin b/Reference ence ence ence Reference Reference
PARP/Reference BID/ Reference Caspase-9/Reference […]

[1] = U-251, 4µM, 24 h, control 0.330
[2] = U-251, 4µM, 24 h, control 1.000

COc1ccccc1/C=C/c1nc(OS(=O)(=O)c2ccc3c(c2)OCO3)c2ccccc2n1 [BS1, 2-((E)-2-(2-methoxyphenyl)ethenyl)quinazolin-4-yl 1,3-benzodioxole-5-sulfonate]
IC50 (K562 cells; Homo sapiens, K562, 72 h incubation, MTS): 0.172 ± 0.034 µM
Selectivity index, K562 (K562 cells; normal fibroblasts NHDF vs K562): 72.91
IC50 (HCT 116 p53^+/+ cells; Homo sapiens, HCT 116 p53^+/+, 72 h incubation, MTS): 0.88 ± 0.086 µM
Selectivity index, HCT 116 p53+/+ (HCT 116 p53^+/+ cells; NHDF vs HCT 116 p53+/+): 14.25
IC50 (HCT 116 p53^−/− cells; Homo sapiens, HCT 116 p53^−/−, 72 h incubation, MTS): 0.563 ± 0.121 µM
Selectivity index, HCT 116 p53 −/− (HCT 116 p53^−/− cells; NHDF vs HCT 116 p53 −/−): 22.27
IC50 (MCF-7 cells; Homo sapiens, MCF7, MCF-7, 72 h incubation, MTS): 8.32 ± 1.94 µM
Selectivity index, MCF-7 (MCF-7 cells; NHDF vs MCF-7): 1.51
IC50 (A549 cells; Homo sapiens, A549, 72 h, A549, 72 h incubation, MTS): > 25 µM
Selectivity index, A549 (A549 cells; NHDF vs A549): 1.00
IC50 (PANC-1 cells; Homo sapiens, PANC-1, 72 h incubation, MTS): 3.98 ± 0.597 µM
Selectivity index, PANC-1 (PANC-1 cells; NHDF vs PANC-1): 3.15
IC50 (NHDF cells): 12.5 ± 0.855 µM
inhibition at 0.5 µM (ABL1): 28.4%
inhibition at 0.5 µM (BRK): 15.3%
inhibition at 0.5 µM (CSK): 0%
inhibition at 0.5 µM (Fyn A): 23.7%
inhibition at 0.5 µM (Lyn B): 0%
Cleavage product of caspase-9 (Western blot) (U-251 cells; U-251, 4 µM, 24 h): approximately three-fold increase
PARP/Reference 89 kDa, densitometric intensity ratio (U-251 cells; [1]): 1.044
caspase-9/Reference 37-35 kDa, densitometric intensity ratio (U-251 cells; [1]): 1.485
BID/Reference 22 kDa, densitometric intensity ratio (U-251 cells; [2]): 0.675
Cathepsin b/Reference 44 kDa, densitometric intensity ratio (U-251 cells; [2]): 2.467
HIF-1α/Reference 120 kDa, densitometric intensity ratio (U-251 cells; [2]): 0.550
PARP/Reference 116 kDa, densitometric intensity ratio (U-251 cells; [2]): 0.871
caspase-9/Reference 47 kDa, densitometric intensity ratio (U-251 cells; [2]): 1.167
cdc2/Reference 34 kDa, densitometric intensity ratio (U-251 cells; [2]): 1.986
cyclin E1/Reference 48 kDa, densitometric intensity ratio (U-251 cells; [2]): 0.576
p21/Reference 21 kDa, densitometric intensity ratio (U-251 cells; [2]): 1.932
p53/Reference 53 kDa, densitometric intensity ratio (U-251 cells; [2]): 1.357
Cathepsin b/Reference 27 kDa, densitometric intensity ratio (U-251 cells; U-251, 4µM, 24 h, control 2.837): 2.726
Cathepsin b/Reference 22 kDa, densitometric intensity ratio (U-251 cells; U-251, 4µM, 24 h, control […]): 2.940
HIF-1α protein expression (Western blot) (U-251 cells; U-251, 24 h): significant decrease
p53 protein levels (Western blot) (U-251 cells; U-251, 24 h): slight increase
